Laboratory results from patent US4461899A, “Fluorenecarboxylic acid derivatives” (Diamond Shamrock Chemicals Company, priority 1982, dated 1984).
Entries after “also recorded” stand apart in the source; their conditions may differ. Counter-ions that a name gives are not always drawn.

Key:
Type in all cases: in vivo
[1] = tested on: "Walter" variety tomato plants; test: Yield of "Walter" variety tomatoes, weekly harvest of mature red fruit; conditions: for Total Fruit / Total Fruit, % of Control: weeks 1-6
Description: Compounds of this invention were further tested as tomato yield enhancers as follows:
"Walter" variety tomato plants, in the early flowering stage, were foliage sprayed at a rate of 68.8 liters/hectare with compounds of this invention, and with the commercial product, CF-125. Each plot consisted of 20 plants; the experimental design was a completed randomized block with three replications. A plot of untreated plants was included as a control. Marketable, mature red tomatoes were harvested weekly, beginning 5 weeks after treatment.

[2] = tested on: field grown tomato plants; test: Fruit set and phytotoxicity in field grown tomato plants; conditions: for Increase Over Control (%) of fruit set: 24 days; for Fruit Set Per Plant (After 24 days) / Phytotoxicity: 24 days after treatment; for Increase (%) of fruit set: initial to 24 days
Description: To determine fruit set effects by compounds of this invention, field grown tomato plants were foliage sprayed with the cis-2,5-dimethylpyrrolidine salt of […], 9-cis-2,5-dimethyl-1-pyrrolidinyl-2-chlorofluorene-9-carboxylic acid, methyl ester, and the commercial plant growth regulant, MAINTAIN CF-125 (methyl-2-chloro-9hydroxyfluorene-9-carboxylate, manufactured by U.S. Borax and Chemical Corp.). Rates of application employed were 5, 25, and 100 ppm when the tomato plants were in the late blooming to early fruit setting stage. Untreated plants were included in the test as controls. Five plants were sprayed for each chemical treatment. The number of fruit set and the degree of phytotoxicity to the plants were determined 24 days after treatment.

[3] = tested on: field grown tomato plants; test: Overall yield and fruit size of field grown tomatoes; conditions: for tomato yield / fruit size, in words: 10, 50 and 500 ppm, Example 1 decrease at 500 ppm; for Fruit Size, Green (% of Control): control 104.0 g; for Fruit Size, Red (% of Control): control 105.5 g
Description: This example illustrates the effects of compounds of this invention on overall yield of tomatoes. For the test, field grown tomato plants, when in the early flowering stage, were foliage sprayed with the particular compounds of the invention designated below, and with the commercial product CF-125 (Maintain), at rates of 10, 50 and 500 ppm. These rates correspond to applications of 3.69 g, 18.54 g and 185.4 g/hectare, respectively. Each treatment consisted of five plants; the experimental design was a complete randomized block with three replications. A block of untreated plants was included as the control. The fruit was harvested by hand and separated into […] ripe fruit and marketable green fruit.

soybean plants = test: Soybean yield after foliar spray at early flowering stage; conditions: for Yield Improvement %: vs control
Description: Two 50 cm rows of soybean plants at the early flowering stage were sprayed with 100 ppm or 500 ppm of the cis-2,5-dimethylpyrrolidine salt of 9-fluorenecarboxylic acid, using a spray volume of about 375 liters/hectare (40 gallons/acre). For comparison, other rows were sprayed with like concentrations of two known compounds as designated below. Also 2 untreated rows were maintained to serve as a control: each of the plots was weeded by hand as needed. At maturity, each plot was harvested and the yield was determined.

## COC(=O)C1(N2[C@H](C)CC[C@@H]2C)c2ccccc2-c2ccc(Cl)cc21 (stereo partly drawn) [Example 8, 9-cis-2,5-dimethyl-1-pyrrolidinyl-2-chlorofluorene-9-carboxylic acid, methyl ester]
[1]; 5-10 ppm
  increased tomato yields above the yield of control plots: 39-80%
[1]; 5 ppm
  Fruit Yield (kg/plot): 32.8 kg/plot
  Total Yield Wt. % of Control: 139.0 % of Control
  Fruit harvested, Harvest Time (Week) 1: 11
  Fruit harvested, Harvest Time (Week) 2: 109
  Fruit harvested, Harvest Time (Week) 3: 103
  Fruit harvested, Harvest Time (Week) 4: 168
  Fruit harvested, Harvest Time (Week) 5: 208
  Fruit harvested, Harvest Time (Week) 6: 286
  Total Fruit: 885
  Total Fruit, % of Control: 154 % of Control
[1]; 10 ppm
  Fruit Yield (kg/plot): 42.6 kg/plot
  Total Yield Wt. % of Control: 180.5 % of Control
  Fruit harvested, Harvest Time (Week) 1: 13
  Fruit harvested, Harvest Time (Week) 2: 123
  Fruit harvested, Harvest Time (Week) 3: 126
  Fruit harvested, Harvest Time (Week) 4: 240
  Fruit harvested, Harvest Time (Week) 5: 306
  Fruit harvested, Harvest Time (Week) 6: 296
  Total Fruit: 1104
  Total Fruit, % of Control: 192 % of Control
[1]; 50 ppm
  Fruit Yield (kg/plot): 15.4 kg/plot
  Total Yield Wt. % of Control: 65.3 % of Control
  Fruit harvested, Harvest Time (Week) 1: 34
  Fruit harvested, Harvest Time (Week) 2: 150
  Fruit harvested, Harvest Time (Week) 3: 81
  Fruit harvested, Harvest Time (Week) 4: 25
  Fruit harvested, Harvest Time (Week) 5: 9
  Fruit harvested, Harvest Time (Week) 6: 100
  Total Fruit: 399
  Total Fruit, % of Control: 69 % of Control
[2]; 5 ppm
  Increase Over Control (%) of fruit set: 36%
  Fruit Set Per Plant (After 24 days): 19.6
  Phytotoxicity: 0
  Fruit Set Per Plant (Initial): 9.4
  Increase (%) of fruit set: 109%
[2]; 25 ppm
  Increase Over Control (%) of fruit set: 9%
  Fruit Set Per Plant (After 24 days): 18.6
  Phytotoxicity: 0
  Fruit Set Per Plant (Initial): 10.2
  Increase (%) of fruit set: 82%
[2]; 100 ppm
  Increase Over Control (%) of fruit set: -23%
  Fruit Set Per Plant (After 24 days): 15.6
  Fruit Set Per Plant (Initial): 10.4
  Increase (%) of fruit set: 50%
[3]
  tomato yield / fruit size, in words: became inhibitory above the 50 ppm rate
[3]; 10 ppm
  Fruit Yield, Green (% of Control): 64 % of Control
  Fruit Yield, Red (% of Control): 161 % of Control
  Total Yield (% of Control): 97 % of Control
  yield of red fruit over the control yield: 61%
  Fruit Size, Green (% of Control): 93 % of Control
  Fruit Size, Red (% of Control): 82 % of Control
[3]; 50 ppm
  Fruit Yield, Green (% of Control): 26 % of Control
  Fruit Yield, Red (% of Control): 93 % of Control
  Total Yield (% of Control): 49 % of Control
  Fruit Size, Green (% of Control): 46 % of Control
  Fruit Size, Red (% of Control): 95 % of Control
[3]; 500 ppm
  Fruit Yield, Green (% of Control): 0 % of Control
  Fruit Yield, Red (% of Control): 76 % of Control
  Total Yield (% of Control): 26 % of Control
  Fruit Size, Green (% of Control): 0 % of Control
  Fruit Size, Red (% of Control): 67 % of Control

## C[C@@H]1CC[C@H](C)N1.O=C(O)C1c2ccccc2-c2ccccc21 [Example 15, Cis-2,5-dimethylpyrrolidine salt of 9-fluorenecarboxylic acid]
Soybean plants; particularly at 500 ppm, over untreated control and fluorenecarboxylic acids
  soybean yield, in words: significantly enhances soybean yield over the untreated control plot and over plots treated with known morphactins

## O=C(O)c1cccc2c1Cc1ccccc1-2 [Example 3, 2,6-Dimethyl piperidine salt of fluorene-1-carboxylic acid]
[3]
  tomato yield / fruit size, in words: increased the yield of red fruit at all rates of application; also recorded: increasing the size of the fruit
[3]; 10 ppm
  Fruit Yield, Green (% of Control): 45 % of Control
  Fruit Yield, Red (% of Control): 119 % of Control
  Total Yield (% of Control): 70 % of Control
  Fruit Size, Green (% of Control): 137 % of Control
  Fruit Size, Red (% of Control): 161 % of Control
[3]; 50 ppm
  Fruit Yield, Green (% of Control): 69 % of Control
  Fruit Yield, Red (% of Control): 122 % of Control
  Total Yield (% of Control): 128 % of Control
  Fruit Size, Green (% of Control): 101 % of Control
  Fruit Size, Red (% of Control): 165 % of Control
[3]; 500 ppm
  Fruit Yield, Green (% of Control): 86 % of Control
  Fruit Yield, Red (% of Control): 127 % of Control
  Total Yield (% of Control): 59 % of Control
  Fruit Size, Green (% of Control): 83 % of Control
  Fruit Size, Red (% of Control): 127 % of Control

## O=C(O)c1cccc2c1Cc1ccccc1-2 [1-fluorenecarboxylic acid]
Soybean plants; 100 ppm
  Yield (Kilograms) × 10^2: 17.16 Kilograms × 10^2
  Yield Improvement %: -2.7%
Soybean plants; 500 ppm
  Yield (Kilograms) × 10^2: 17.34 Kilograms × 10^2
  Yield Improvement %: -1.5%

## O=C(O)C1c2ccccc2-c2ccccc21 [9-fluorenecarboxylic acid]
Soybean plants; 100 ppm
  Yield (Kilograms) × 10^2: 18.93 Kilograms × 10^2
  Yield Improvement %: 7.3%
Soybean plants; 500 ppm
  Yield (Kilograms) × 10^2: 19.02 Kilograms × 10^2
  Yield Improvement %: 7.5%
